Experimental data reported in the supplement of paper PMC10627819.

What was measured:
Assay in all cases: fitness (endpoint OD595 vs no drug) (fraction); higher = more growth
B. subtilis 168 = tested on: B. subtilis 168
How it was run: (§1)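 Each well of a 384-well plate received 30 µl of culture at OD595 0.01, or 55 µl for S. pneumoniae. TSB, LB Lennox or CY served as media at 37 °C. OD595 was taken every 30 min for 14 h and corrected by subtracting the first reading. Fitness is the optical density at stationary-phase entry divided by the robust mean of no-drug controls, capped at 1.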

S. aureus DSM 20231 = tested on: S. aureus DSM 20231
How it was run: as §1

S. pneumoniae D39V = tested on: S. pneumoniae D39V
How it was run: as §1

CN(C)[C@@H]1C(O)=C(C(N)=O)C(=O)[C@@]2(O)C(O)=C3C(=O)c4c(O)ccc(Cl)c4[C@@](C)(O)[C@H]3C[C@@H]12 [Chlortetracycline] + COc1cc(Cc2cnc(N)nc2N)cc(OC)c1OC [Trimethoprim]
one replicate
Settings | fitness
B. subtilis 168, first compound 0.0475 µg/mL, partner 0.1 µg/mL | 0.82
B. subtilis 168, first compound 0.0475 µg/mL, partner 0.2 µg/mL | 0.735
B. subtilis 168, first compound 0.0475 µg/mL, partner 0.4 µg/mL | 0.637
B. subtilis 168, first compound 0.0475 µg/mL, partner 1 µg/mL | 0.296
B. subtilis 168, first compound 0.0475 µg/mL, partner 2 µg/mL | 0.305
B. subtilis 168, first compound 0.095 µg/mL, partner 0.1 µg/mL | 0.81
B. subtilis 168, first compound 0.095 µg/mL, partner 0.2 µg/mL | 0.707
B. subtilis 168, first compound 0.095 µg/mL, partner 0.4 µg/mL | 0.531
B. subtilis 168, first compound 0.095 µg/mL, partner 1 µg/mL | 0.132
B. subtilis 168, first compound 0.095 µg/mL, partner 2 µg/mL | 0.119
B. subtilis 168, first compound 0.19 µg/mL, partner 0.1 µg/mL | 0.599
B. subtilis 168, first compound 0.19 µg/mL, partner 0.2 µg/mL | 0.421
B. subtilis 168, first compound 0.19 µg/mL, partner 0.4 µg/mL | 0.279
B. subtilis 168, first compound 0.19 µg/mL, partner 1 µg/mL | 0.0652
B. subtilis 168, first compound 0.19 µg/mL, partner 2 µg/mL | 0.0699
S. aureus DSM 20231, first compound 0.006 µg/mL, partner 0.125 µg/mL | 0.656
S. aureus DSM 20231, first compound 0.006 µg/mL, partner 0.25 µg/mL | 0.606
S. aureus DSM 20231, first compound 0.006 µg/mL, partner 0.5 µg/mL | 0.509
S. aureus DSM 20231, first compound 0.048 µg/mL, partner 0.125 µg/mL | 0.0947

fitness
Settings | partner 0.125 µg/mL | partner 0.25 µg/mL | partner 0.5 µg/mL | partner 1 µg/mL
B. subtilis 168, first compound 0.0475 µg/mL | 0.762 | 0.62 | – | –
B. subtilis 168, first compound 0.095 µg/mL | 0.673 | 0.548 | – | –
B. subtilis 168, first compound 0.19 µg/mL | 0.52 | 0.406 | 0.279 | –
S. aureus DSM 20231, first compound 0.012 µg/mL | 0.47 | 0.545 | 0.36 | 0.0767
S. aureus DSM 20231, first compound 0.024 µg/mL | 0.159 | – | 0.171 | 0.0593
S. aureus DSM 20231, first compound 0.048 µg/mL | – | 0.117 | 0.0724 | 0.042

CC(=O)Oc1ccccc1C(=O)O [Acetylsalicylic acid] + CO[C@@]12[C@H](COC(N)=O)C3=C(C(=O)C(C)=C(N)C3=O)N1C[C@@H]1N[C@@H]12 [Mitomycin C]
fitness
Settings | first compound 250 µg/mL | first compound 500 µg/mL | first compound 1000 µg/mL
S. aureus DSM 20231, partner 0.0156 µg/mL | 0.731 | 0.612 | 0.446
S. aureus DSM 20231, partner 0.0312 µg/mL | 0.674 | 0.579 | –
S. aureus DSM 20231, partner 0.0625 µg/mL | 0.559 | 0.483 | –
S. pneumoniae D39V, partner 0.001075 µg/mL | ≥ 1 | ≥ 1 | ≥ 1
S. pneumoniae D39V, partner 0.002 µg/mL | 0.703 | 0.673 | 0.416
S. pneumoniae D39V, partner 0.00215 µg/mL | 0.888 | 0.904 | 0.868
S. pneumoniae D39V, partner 0.004 µg/mL | 0.733 | 0.657 | 0.426
S. pneumoniae D39V, partner 0.0043 µg/mL | 0.8 | 0.811 | 0.774
S. pneumoniae D39V, partner 0.008 µg/mL | 0.548 | 0.454 | 0.335

CC(=O)Oc1ccccc1C(=O)O [Acetylsalicylic acid] + Cn1nnc(-c2ccc(-c3ccc(N4C[C@H](CO)OC4=O)cc3F)cn2)n1 [Tedizolid]
fitness
Settings | partner 0.03125 µg/mL | partner 0.0625 µg/mL | partner 0.125 µg/mL | partner 0.25 µg/mL | partner 0.5 µg/mL
S. aureus DSM 20231, first compound 250 µg/mL | – | 0.839 | 0.778 | 0.403 | –
S. aureus DSM 20231, first compound 500 µg/mL | – | – | – | 0.327 | –
S. aureus DSM 20231, first compound 1000 µg/mL | – | – | – | 0.128 | –
S. pneumoniae D39V, first compound 250 µg/mL | 0.968 | 0.989 | 0.864 | 0.534 | 0.208
S. pneumoniae D39V, first compound 500 µg/mL | 0.989 | 0.986 | 0.789 | 0.472 | 0.175
S. pneumoniae D39V, first compound 1000 µg/mL | 0.966 | 0.962 | 0.728 | 0.385 | 0.16

CC(=O)Oc1ccccc1C(=O)O [Acetylsalicylic acid] + CCC[C@@H]1C[C@@H](C(=O)N[C@@H]([C@H]2O[C@H](SC)[C@H](O)[C@@H](O)[C@H]2O)[C@H](C)Cl)N(C)C1 [Clindamycin]
fitness
Settings | first compound 250 µg/mL | first compound 500 µg/mL | first compound 1000 µg/mL
S. aureus DSM 20231, partner 0.0312 µg/mL | – | – | 0.28
S. aureus DSM 20231, partner 0.0625 µg/mL | 0.143 | 0.169 | 0.114
S. aureus DSM 20231, partner 0.125 µg/mL | 0.0488 | 0.0833 | 0.0683
S. pneumoniae D39V, partner 0.0125 µg/mL | 0.759 | 0.697 | 0.508
S. pneumoniae D39V, partner 0.015 µg/mL | 0.857 | 0.771 | 0.528
S. pneumoniae D39V, partner 0.025 µg/mL | 0.468 | 0.435 | 0.37
S. pneumoniae D39V, partner 0.03 µg/mL | 0.677 | 0.574 | 0.37
S. pneumoniae D39V, partner 0.05 µg/mL | 0.164 | 0.166 | 0.129
S. pneumoniae D39V, partner 0.06 µg/mL | 0.331 | 0.246 | 0.104

CC(=O)Oc1ccccc1C(=O)O [Acetylsalicylic acid] + C[C@@H]1O[C@@H]1P(=O)(O)O [Fosfomycin]
fitness
Settings | first compound 250 µg/mL | first compound 500 µg/mL | first compound 1000 µg/mL
S. aureus DSM 20231, partner 0.781 µg/mL | 0.621 | 0.619 | 0.51
S. aureus DSM 20231, partner 1.562 µg/mL | 0.537 | 0.546 | 0.438
S. aureus DSM 20231, partner 3.124 µg/mL | 0.487 | 0.452 | 0.283
S. pneumoniae D39V, partner 1.25 µg/mL | 0.989 | 0.955 | 0.862
S. pneumoniae D39V, partner 2.5 µg/mL | 0.939 | 0.939 | 0.82
S. pneumoniae D39V, partner 5 µg/mL | 0.831 | 0.88 | 0.791

CC(=O)Oc1ccccc1C(=O)O [Acetylsalicylic acid] + CN[C@H](CC(C)C)C(=O)N[C@H]1C(=O)N[C@@H](CC(N)=O)C(=O)N[C@H]2C(=O)N[C@H]3C(=O)N[C@H](C(=O)N[C@H](C(=O)O)c4cc(O)cc(O)c4-c4cc3ccc4O)[C@H](O)c3ccc(c(Cl)c3)Oc3cc2cc(c3O[C@@H]2O[C@H](CO)[C@@H](O)[C@H](O)[C@H]2O[C@H]2C[C@](C)(N)[C@H](O)[C@H](C)O2)Oc2ccc(cc2Cl)[C@H]1O [Vancomycin]
fitness
Settings | first compound 250 µg/mL | first compound 500 µg/mL | first compound 1000 µg/mL
S. aureus DSM 20231, partner 0.1875 µg/mL | 0.871 | 0.79 | 0.592
S. aureus DSM 20231, partner 0.375 µg/mL | 0.953 | – | 0.562
S. aureus DSM 20231, partner 0.75 µg/mL | 0.947 | – | –
S. pneumoniae D39V, partner 0.03125 µg/mL | 0.956 | 0.934 | 0.839
S. pneumoniae D39V, partner 0.0625 µg/mL | 0.894 | 0.885 | 0.826
S. pneumoniae D39V, partner 0.125 µg/mL | 0.927 | 0.917 | 0.84
S. pneumoniae D39V, partner 0.25 µg/mL | 0.984 | 0.961 | 0.83
S. pneumoniae D39V, partner 0.5 µg/mL | 0.105 | 0.0715 | 0.0849

CN(C)[C@@H]1C(O)=C(C(N)=O)C(=O)[C@@]2(O)C(O)=C3C(=O)c4c(O)ccc(Cl)c4[C@@](C)(O)[C@H]3C[C@@H]12 [Chlortetracycline] + CO/N=C(\C(=O)N[C@@H]1C(=O)N2C(C(=O)[O-])=C(C[N+]3(C)CCCC3)CS[C@H]12)c1csc(N)n1 [Cefepime]
S. aureus DSM 20231, first compound 0.006 µg/mL, one replicate
Settings | fitness
partner 0.125 µg/mL | 0.792
partner 0.25 µg/mL | 0.774
partner 0.5 µg/mL | 0.722

Settings | fitness
S. aureus DSM 20231, first compound 0.012 µg/mL, partner 0.125 µg/mL | 0.63
S. aureus DSM 20231, first compound 0.012 µg/mL, partner 0.25 µg/mL | 0.617
S. aureus DSM 20231, first compound 0.012 µg/mL, partner 0.5 µg/mL | 0.636
S. aureus DSM 20231, first compound 0.024 µg/mL, partner 0.125 µg/mL | 0.388
S. aureus DSM 20231, first compound 0.048 µg/mL, partner 0.125 µg/mL | 0.274
S. aureus DSM 20231, first compound 0.048 µg/mL, partner 0.25 µg/mL | 0.304
S. aureus DSM 20231, first compound 0.048 µg/mL, partner 0.5 µg/mL | 0.274
S. pneumoniae D39V, first compound 0.012 µg/mL, partner 0.007 µg/mL | 0.964
S. pneumoniae D39V, first compound 0.012 µg/mL, partner 0.014 µg/mL | 0.949
S. pneumoniae D39V, first compound 0.012 µg/mL, partner 0.028 µg/mL | 0.836
S. pneumoniae D39V, first compound 0.024 µg/mL, partner 0.007 µg/mL | 0.936
S. pneumoniae D39V, first compound 0.024 µg/mL, partner 0.014 µg/mL | 0.86
S. pneumoniae D39V, first compound 0.024 µg/mL, partner 0.028 µg/mL | 0.811
S. pneumoniae D39V, first compound 0.048 µg/mL, partner 0.007 µg/mL | 0.659
S. pneumoniae D39V, first compound 0.048 µg/mL, partner 0.014 µg/mL | 0.661
S. pneumoniae D39V, first compound 0.048 µg/mL, partner 0.028 µg/mL | 0.693
S. pneumoniae D39V, first compound 0.375 µg/mL, partner 0.0078 µg/mL | 0.0772
S. pneumoniae D39V, first compound 0.375 µg/mL, partner 0.0155 µg/mL | 0.049
S. pneumoniae D39V, first compound 0.375 µg/mL, partner 0.031 µg/mL | 0.0797
S. pneumoniae D39V, first compound 0.75 µg/mL, partner 0.0078 µg/mL | 0.0925
S. pneumoniae D39V, first compound 0.75 µg/mL, partner 0.0155 µg/mL | 0.0687
S. pneumoniae D39V, first compound 0.75 µg/mL, partner 0.031 µg/mL | 0.0749
S. pneumoniae D39V, first compound 1.5 µg/mL, partner 0.0078 µg/mL | 0.0695
S. pneumoniae D39V, first compound 1.5 µg/mL, partner 0.0155 µg/mL | 0.0769
S. pneumoniae D39V, first compound 1.5 µg/mL, partner 0.031 µg/mL | 0.0751
